Measured values as given in article PMC3940921 (Oncogenesis, 2014).
Where two headings read alike, the source gives them in different places.

B1: IFN-γ: interferon-γ, used at 100 U/ml for 72 h to induce immunoproteasome expression (protein, UniProt P01579 24-161, looked up)
Interferon gamma: QDPYVKEAENLKKYFNAGHSDVADNGTLFLGILKNWKEESDRKIMQSQIVSFYFKLFKNFKDDQSIQKSVETIKEDMNVKFFNSNKKKRDDFEKLTNYSVTDLNVQRKAIHELIQVMAELSPAAKTGKRKRSQMLFRG

What was measured:
CML cell lines = experiment: Cell viability of CML cell lines; assay type: cell-based; details: read-out: IC50, viability
ABI 1/2 = experiment: Western blot of ABI 1/2 levels after carfilzomib; assay type: cell-based; details: carfilzomib at IC50 levels; cell lines and primary CD34+38- enriched cells
[1] = system: STAT5 or PI3K signaling pathways; experiment: Western blot of STAT5 and PI3K signaling after carfilzomib; assay type: cell-based; details: carfilzomib at IC50 doses, 1 h pulse, fresh medium 24 h
CML CD34+ cells = experiment: LTC-IC assay, CML CD34+ cells; assay type: cell-based, human; details: pulsed 1 h with 50 nM
KCL22S cells = experiment: Proliferation of KCL22S cells with or without LMP7 siRNA; assay type: cell-based; details: Homo sapiens, 24 h, read-out: IC50, proliferation, control KCL22S, continuous exposure for 24 h
[2] = system: caspase-3 activity in CML cell lines and primary samples; experiment: Caspase-3 activity; assay type: cell-based; details: pulse treatment 1 h at IC50 doses
NBM CD34+38- cells = experiment: Viability of normal bone marrow CD34+38- cells; assay type: cell-based, human; details: 50 nM for 1 h, then drug-free medium 24 h
CML CD34+38- cells = experiment: Viability of CML CD34+38- cells; assay type: cell-based, human; details: 50 nM for 1 h, then drug-free medium 24 h
normal CD34+ cells (NBM) = experiment: LTC-IC assay, normal CD34+ cells; assay type: cell-based, human; details: pulsed 1 h with 50 nM
K562 cells = experiment: Proliferation of K562 cells with or without IFN-γ; assay type: cell-based; details: Homo sapiens
LAMA84S cells = experiment: Proliferation of LAMA84S cells with or without LMP7 siRNA; assay type: cell-based; details: Homo sapiens, 24 h, read-out: IC50, proliferation, control LAMA84S, continuous exposure for 24 h
[3] = system: A549 lung carcinoma cell line; experiment: Proliferation of A549 cells with or without IFN-γ; assay type: cell-based; details: Homo sapiens
[4] = system: LMP7 expression in K562 cells; experiment: Induction of LMP7 expression by IFN-γ in K562 cells; assay type: cell-based; details: 100 U/ml IFN-γ for 72 h
[5] = system: LMP7 expression in A549 cells; experiment: Induction of LMP7 expression by IFN-γ in A549 cells; assay type: cell-based; details: 100 U/ml IFN-γ for 72 h

Molecule	IC50 (CML cell lines) [nM]	increased expression of ABI 1/2 (ABI 1/2)	effect on STAT5 or PI3K signaling pathways [1]	colony formation reduced by (CML CD34+ cells) [%]	IC50 (KCL22S cells) [nM]	caspase-3 activity [2]	viability reduced by (NBM CD34+38- cells) [%]	viability reduced by (CML CD34+38- cells) [%]	colony formation reduced by (normal CD34+ cells (NBM)) [%]	IC50 (K562 cells; K562, 24 h, read-out: IC50, proliferation) [nM]	IC50 (K562 cells; K562, read-out: IC50, proliferation) [nM]	IC50 (LAMA84S cells) [nM]	IC50 ([3]; A549, 24 h, read-out: IC50, proliferation) [nM]	IC50 ([3]; A549, read-out: IC50, proliferation) [nM]	increase in the expression of LMP7 [4]	increase in the expression of LMP7 [5] [fold]
CC(C)C[C@H](NC(=O)[C@H](CCc1ccccc1)NC(=O)CN1CCOCC1)C(=O)N[C@@H](Cc1ccccc1)C(=O)N[C@@H](CC(C)C)C(=O)[C@@]1(C)CO1 [carfilzomib]	20 to 79	2.2–6.8 fold	no effect	58±11	5	increase in caspase-3 activity	19±2	39±1	44±7	608	179	7	92	10	–	–
B1	–	–	–	–	–	–	–	–	–	–	–	–	–	–	fourfold	10
